Legend:
MCF-7 cells = assay: Lactate dehydrogenase release; format: cell-based, human; settings: MCF-7, IC50 concentrations, 48 h
Protocol: (§1) LDH is a stable cytoplasmic enzyme that is released into the culture medium following loss of membrane integrity and serves as a general mean to assess cytotoxicity resulting from chemical compounds or environmental toxic factors.[68] In the present study, LDH leakage into the culture medium of the compounds treated A549 and MCF-7 cells was analyzed. […] The results confirmed the cytotoxic effect of the ligands and complexes on lung and breast cancer cell lines. The compounds could induce LDH leakage as high as that of cisplatin. […] Error bars represent the standard mean error (n = 6).

A549 cells = assay: Lactate dehydrogenase release; format: cell-based, human; settings: A549, IC50 concentrations, 48 h
Protocol: as §1

CCNC1=N[N+]2=C(C)c3[c](c4ccc(OC)cc4oc3=O)[Ru-4]2([C]#[O+])([P+](c2ccccc2)(c2ccccc2)c2ccccc2)([P+](c2ccccc2)(c2ccccc2)c2ccccc2)[S]1 [Complex 3, [Ru(7MAC-etsc)(CO)(PPh3)2]]
LDH release into the culture medium (MCF-7 cells): more potent in inducing LDH leakage into the culture than the rest
LDH release into the culture medium (A549 cells): more potent in inducing LDH leakage into the culture than the rest

— publication PMC9077138, “An investigation on 3-acetyl-7-methoxy-coumarin Schiff bases and their Ru(II) metallates with potent antiproliferative activity and enhanced LDH and NO release” (RSC Advances, 2018)
